From US20080207719A1, “Treatment of Epilepsy” (ORION CORPORATION, priority 2003, published 2008)
Where “and” joins values, the source holds several entries; their conditions need not be identical. Equal entries are not always repeated.

How the values were obtained:
[1] = system: Male Harlan Sprague-Dawley rats; assay: Development of epilepsy after status epilepticus (SE) induced by electrical stimulation of the amygdala; chronic treatment started 1 wk after SE; type: in vivo; details: for Number of animals with severe (>1 seizure/day) epilepsy, during treatment / Number of animals with mild (≦1 seizure/day) epilepsy, during treatment / Number of animals with mild (≦1 seizure/day) epilepsy, All / Number of animals with severe (>1 seizure/day) epilepsy, All / Number of animals with mild (≦1 seizure/day) epilepsy, after treatment / Number of animals with severe (>1 seizure/day) epilepsy, after treatment: rats after SE; for Number of animals with severe (>1 seizure/day) epilepsy, during treatment / Number of animals with mild (≦1 seizure/day) epilepsy, during treatment: atipamezole 100 μg/kg/h s.c. minipump for 9 wk starting 1 wk after SE, DZP 20 mg/kg i.p. at 3 h after beginning of SE; for Number of animals with severe (>1 seizure/day) epilepsy, during treatment: animals/epileptic animals; for Number of animals with mild (≦1 seizure/day) epilepsy, All / Number of animals with severe (>1 seizure/day) epilepsy, All: both follow-ups (All); for Number of animals with mild (≦1 seizure/day) epilepsy, after treatment / Number of animals with severe (>1 seizure/day) epilepsy, after treatment: follow-up after the 9 wk treatment
Description: To mimic the clinical environment, α2-adrenoceptor antagonist treatment with atipamezole was started 1 wk after induction of status epilepticus (SE) with subcutaneous Alzet minipumps and continued for 9 wk. Two independent studies were carried out.
Male Harlan Sprague-Dawley rats (300-350 g; Netherlands) were used in this study. After implantation of electrodes, rats were housed in individual cages at a temperature of 19-21° C., with humidity at 50-60% and lights on 7.00-19.00. Standard food pellets and water were freely available.
The animals were anaesthetized with an intraperitoneal injection of sodium pentobarbital (60 mg/kg) and chloral hydrate (60 mg/kg) and inserted into a stereotaxic frame (lambda and bregma at the same horizontal level). A pair of stimulating electrodes (0.5 mm tip separation) was implanted into the lateral nucleus of the left amygdala (3.6 mm posterior, 5.0 mm lateral, and 6.5 mm ventral to bregma). One stainless steel screw was inserted into the skull above the right frontal cortex and served as cortical electrode (3 mm anterior to the bregma, 2 mm lateral to midline). Two stainless steel screws were inserted into the skull bilaterally over the cerebellum, which served as indifferent and ground electrodes. The electrodes were fixed with dental acrylate. The rats were allowed to recover from surgical operation for 14 d, after which electrical stimulation was initiated.
After discharge threshold was assessed by stimulating the amygdala with a one-second train of one-msec bipolar square-wave pulses (60 Hz, 50-400 μA peak to peak). Only those rats in which after discharges could be induced at 400 μA or at lower current level were included in the study.
To induce SE, the amygdala was stimulated repeatedly at 500 msec intervals with a train of pulses lasting 100 msec (1 msec 60 Hz bipolar pulses at 400 μA peak to peak). […] Once the criterion of SE was achieved, no further stimulation was given. After 3 h, SE was terminated by injecting diazepam 20 mg/kg (i.p.).
Vehicle (0.9% saline, Natrosteril 9 mg/ml, Baxter, Vantaa, Finland) was administered via subcutaneous Alzet minipumps with a pumping rate of 9.15 μl/h in 1-wk and 2.61 μl/h in 8-wk pumps starting 1 wk after stimulation. Minipumps were implanted subcutaneously to the back between the scapulae according to the instructions provided by manufacturer. For implantation, animals were anesthetized with an intraperitoneal injection of sodium pentobarbital (60 mg/kg) and chloral hydrate (60 mg/kg).
Diazepam was administered at 3 h after the beginning of SE (20 mg/kg, i.p.). Atipamezole treatment was started 1 wk after SE. Compound was administered with subcutaneous Alzet osmotic minipumps and continued for 9 wk. Atipamezole was dissolved into sterile 0.9% NaCl. The concentration of atipamezole was adjusted according to the weight of the rat and pumping rate to obtain a constant flow-rate of 100 μg/kg/h.
• DZP (diazepam)+vehicle (n=11): Rats with SE treated with DZP (20 mg/kg, i.p.) at 3 h after the beginning of SE. Chronic treatment with vehicle (0.9% NaCl, subcutaneous Alzet minipumps) for 9 wk starting 1 wk after SE. • DZP+atipamezole (n=7): Rats with SE treated with DZP (20 mg/kg, i.p.) at 3 h after the beginning of SE. Chronic treatment with atipamezole (100 μg/kg/h, subcutaneous Alzet minipumps) for 9 wk starting 1 wk after SE.
Controls (n=9): Operated, non-stimulated and non-treated controls.
Ø+vehicle (n=11): No treatment at 3 h after the beginning of SE. Chronic treatment with vehicle (0.9% NaCl in subcutaneous Alzet minipump) for 9 wk starting 1 wk after SE.
DZP+vehicle (n=10): Diazepam treatment (20 mg/kg, i.p.) at 3 h after the beginning of SE. Chronic treatment with vehicle (0.9% NaCl in subcutaneous Alzet minipump) for 9 wk starting 1 wk after SE.
Ø+atipamezole (n=10). No treatment at 3 h after the beginning of SE. Chronic treatment with atipamezole (100 μg/kg/h, subcutaneous Alzet minipumps) for 9 wk starting 1 wk after SE.
DZP+atipamezole (n=12). […]

alpha2-adrenoceptor = details: background statement, no species differences (human and rodent); cited from earlier work
kainate-induced seizures = details: acute administration; Halonen T. et al., Brain Res 1995; cited from earlier work
cortical excitability = details: oral administration, humans; Plewnia C et al., Neurosci Lett 2001; cited from earlier work
[2] = listed as Ø + atipamezole, hydrochloride
[3] = listed as Ø/DZP + atipamezole, hydrochloride

CCC1(c2c[nH]cn2)Cc2ccccc2C1.Cl [atipamezole, 4-(2-ethyl-2,3-dihydro-1H-inden-2-yl)-1H-imidazole hydrochloride]
Number of animals with severe (>1 seizure/day) epilepsy, during treatment [1, 2]: 1/8 | Number of animals with severe (>1 seizure/day) epilepsy, during treatment [1, 3]: 1/20 | Number of animals with mild (≦1 seizure/day) epilepsy, during treatment [1, 2]: 7/8 | Number of animals with mild (≦1 seizure/day) epilepsy, during treatment [1, 3]: 19/20 | Number of animals with mild (≦1 seizure/day) epilepsy, All [1, 2]: 7/8 | Number of animals with severe (>1 seizure/day) epilepsy, All [1, 2]: 1/8 | Number of animals with mild (≦1 seizure/day) epilepsy, All [1, 3]: 21/22 | Number of animals with severe (>1 seizure/day) epilepsy, All [1, 3]: 1/22 | Number of animals with mild (≦1 seizure/day) epilepsy, after treatment [1, 2]: 6/7 | Number of animals with severe (>1 seizure/day) epilepsy, after treatment [1, 2]: 1/7 | Number of animals with mild (≦1 seizure/day) epilepsy, after treatment [1, 3]: 19/20 | Number of animals with severe (>1 seizure/day) epilepsy, after treatment [1, 3]: 1/20 | Effect on epileptogenesis ([1]; summary statement, epilepsy that develops is milder and can be non-progressive): clear disease-modifying effect on epileptogenesis | alpha2/alpha1-selectivity ratio (alpha2-adrenoceptor): high | Effect on kainate-induced seizures (kainate-induced seizures): proconvulsant effect

CN1C(=O)CN=C(c2ccccc2)c2cc(Cl)ccc21 [DZP + vehicle]
Rats with >1 seizure/day ([1]; data combined from the two studies): 50% | Number of animals with mild (≦1 seizure/day) epilepsy, during treatment [1]: 1/4 and 6/10 | Number of animals with severe (>1 seizure/day) epilepsy, during treatment [1]: 3/4 and 4/10 | Number of animals with mild (≦1 seizure/day) epilepsy, All [1]: 2/4 and 5/10 | Number of animals with severe (>1 seizure/day) epilepsy, All [1]: 2/4 and 5/10 | Number of animals with mild (≦1 seizure/day) epilepsy, after treatment [1]: 1/3 and 5/9 | Number of animals with severe (>1 seizure/day) epilepsy, after treatment [1]: 2/3 and 4/9

COC(=O)[C@@H]1[C@H]2C[C@H]3c4[nH]c5ccccc5c4CCN3C[C@@H]2CC[C@@H]1O [yohimbine]
Cortical excitability induced by transcranial magnetic stimulation (cortical excitability): increased cortical excitability
